Columns and labels:
SCP28 [1] = assay: Cleaved PARP and cleaved caspase-3 immunoblotting after cisplatin; format: cell-based, human; settings: SCP28 single-cultured cells, 72 hours post-treatment
Description: (§1) FIG. 7. Pro-survival effect of osteoblast Jagged1 on cancer cells can be blocked by 15D11. (A) 3-D tumorsphere culture of MCF7, SCP28, and SUM1315-M1B1 cells, alone or in co-cultured with osteoblast cells, were treated with indicated concentrations of cisplatin or docetaxel. Two days after the chemotherapy, the surviving tumor spheres were counted under the fluorescent microscope. n=3. *p<0.05 by Student's t-test. (B) Cell culture of SCP28 cells alone or in co-culture with MC3T3-E1 pre-osteoblast cells were treated with PBS control or cisplatin. Protein samples were collected at 6 hr, 24 hr, and 72 hr later. Cleaved PARP and cleaved caspase-3 were determined by immunoblotting. # marks full length PARP and * marks cleaved PARP. […] Hind limb bones were fixed and cryo-sectioned for IF staining against CC3 for apoptotic cells and GFP for tumor cells (E), and CC3 positive apoptotic cells among GFP-positive tumor cells were quantified in F. Size bar: 25 μm. n=5. **p<0.01 by Student's t-test. […] Tumor cells in the bone were quantified based on BLI imaging at Day 1 and Day 4. […]
To mimic chemoresistance and tumor seeding effects by osteoblast lineage cells in vitro, an in vitro 3D tumor-stroma co-culture assay (Wang et al., 2015) was adapted. […] Cleaved PARP and cleaved caspase-3 (CC3) status were analyzed by immuno-blotting at different time points after cisplatin treatment. […]

[2] = tested on: Notch downstream genes (human HES2, HEY1, HEY2); assay: Notch downstream gene expression in tumor cells co-cultured with MSC after chemotherapy; format: cell-based; settings: co-culture tumor cells after chemotherapy
SCP28 [3] = assay: CC3 immunofluorescent staining of GFP-positive tumor cells in mouse bone sections; format: in vivo, mice; settings: after two rounds of treatment
Description: as §1
Hindlimb bones were excised from mice at the end point of each experiment, immediately after the last BLI time point. […] For quantitative analysis of lesion area, a 10× objective was used to focus on the tumor region of interest and images were acquired using the AxioCamICc3 camera set to an exposure of around 100 ms. […]

SMILES	cleaved PARP and CC3 (SCP28 [1])	Notch downstream genes HES2, HEY1, HEY2 [2]	CC3 positive tumor cells (SCP28 [3])
N.N.[Cl][Pt][Cl] [cisplatin]	strong induction	significantly upregulated	–
CC(=O)O[C@H]1C(=O)[C@@]2(C)[C@H]([C@H](OC(=O)c3ccccc3)[C@]3(O)C[C@H](OC(=O)[C@H](O)[C@@H](NC(=O)c4ccccc4)c4ccccc4)C(C)=C1C3(C)C)[C@]1(OC(C)=O)CO[C@@H]1C[C@@H]2O [paclitaxel]	–	–	substantial numbers of tumor cells
